What all share (type): functional
The test system of one experiment is PC-3. The experiment can be described thus: Growth inhibition of human PC3 cells at 50 uM after 48 hrs by SRB assay relative to control. The note with it: PC-3, 48 h, read-out: GI. (In general: The SRB assay estimates cell density from bound dye.)
A further experiment relates to SK-LU-1. The experiment can be described thus: Growth inhibition of human SKLU1 cells at 50 uM after 48 hrs by SRB assay relative to control. The note with it: SK-LU-1, 48 h, read-out: GI.
A further experiment deals with MCF7. Description: Growth inhibition of human MCF7 cells at 50 uM after 48 hrs by SRB assay relative to control. Conditions: MCF7, 48 h, read-out: GI.

SMILES strings stand for the structures.

Take `C[C@]12CC[C@H](OC(=O)C3CCCC3)CC1=CC[C@@H]1[C@@H]2CC[C@]2(C)C(n3cncn3)=C(C=O)C[C@@H]12`: the figures for the inhibition of growth at 50 µM in the experiment on PC-3, with SK-LU-1 and in the experiment with MCF7 were 23.8%, 0% and 0%, respectively.

As for `C[C@]12CC[C@H](OC(=O)C3CCCCC3)CC1=CC[C@@H]1[C@@H]2CC[C@]2(C)C(n3cncn3)=C(C=O)C[C@@H]12`, the inhibition of growth at 50 µM with PC-3 came out at 0%; in the experiment with SK-LU-1, 24.9%; with MCF7, 11%.

For `C[C@]12CC[C@H](OC(=O)C3CCCCCC3)CC1=CC[C@@H]1[C@@H]2CC[C@]2(C)C(n3cncn3)=C(C=O)C[C@@H]12`, the inhibition of growth at 50 µM in the experiment on PC-3 was determined as 36.8%; in the experiment with SK-LU-1, 94.7%; with MCF7 it was 78%.

On to `COc1ccc(C(=O)O[C@H]2CC[C@@]3(C)C(=CC[C@@H]4[C@@H]3CC[C@]3(C)C(n5cncn5)=C(C=O)C[C@@H]43)C2)cc1`, for which the inhibition of growth at 50 µM stood at 0% in the experiment with PC-3, 9.2% with SK-LU-1 and 23% in the experiment on MCF7.

With `Cc1ccc(C(=O)O[C@H]2CC[C@@]3(C)C(=CC[C@@H]4[C@@H]3CC[C@]3(C)C(n5cncn5)=C(C=O)C[C@@H]43)C2)cc1`, the inhibition of growth at 50 µM in the experiment on PC-3 amounted to 3.1%; in the experiment on SK-LU-1, 68%; with MCF7 it was 48.7%.

`C[C@]12CC[C@H](OC(=O)c3ccccc3)CC1=CC[C@@H]1[C@@H]2CC[C@]2(C)C(n3cncn3)=C(C=O)C[C@@H]12`: the inhibition of growth at 50 µM in the experiment with PC-3 came out at 21.8%; in the experiment with SK-LU-1, 39.7%; in the experiment on MCF7, 33.5%.

For `C[C@]12CC[C@H](OC(=O)c3ccc(C(F)(F)F)cc3)CC1=CC[C@@H]1[C@@H]2CC[C@]2(C)C(n3cncn3)=C(C=O)C[C@@H]12`, the inhibition of growth at 50 µM with PC-3 amounted to 100%; in the experiment with SK-LU-1 it was 89.1%; with MCF7, 100%.

As to `C[C@]12CC[C@H](OC(=O)c3ccc(C#N)cc3)CC1=CC[C@@H]1[C@@H]2CC[C@]2(C)C(n3cncn3)=C(C=O)C[C@@H]12`, the figures for the inhibition of growth at 50 µM in the experiment on PC-3, in the experiment with SK-LU-1 and in the experiment with MCF7 were 100%, 89.9% and 100%, respectively.

Turning to `C[C@]12CC[C@H](OC(=O)c3ccc([N+](=O)[O-])cc3)CC1=CC[C@@H]1[C@@H]2CC[C@]2(C)C(n3cncn3)=C(C=O)C[C@@H]12`, the figures for the inhibition of growth at 50 µM in the experiment with PC-3, in the experiment on SK-LU-1 and in the experiment on MCF7 were 85.7%, 100% and 100%, respectively.

As for `COc1ccc(C(=O)O[C@H]2CC[C@@]3(C)C(=CC[C@@H]4[C@@H]3CC[C@]3(C)C(n5cccn5)=C(C=O)C[C@@H]43)C2)cc1`, the values for the inhibition of growth at 50 µM with PC-3, with SK-LU-1 and in the experiment on MCF7 were 51.5%, 80% and 100%, respectively.

For the compound `Cc1ccc(C(=O)O[C@H]2CC[C@@]3(C)C(=CC[C@@H]4[C@@H]3CC[C@]3(C)C(n5cccn5)=C(C=O)C[C@@H]43)C2)cc1`, the figures for the inhibition of growth at 50 µM in the experiment on PC-3, with SK-LU-1 and in the experiment with MCF7 were 0%, 8.5% and 0%, respectively.

In the case of `C[C@]12CC[C@H](OC(=O)c3ccccc3)CC1=CC[C@@H]1[C@@H]2CC[C@]2(C)C(n3cccn3)=C(C=O)C[C@@H]12`, the inhibition of growth at 50 µM came out at 31.4% in the experiment on PC-3, 5.8% with SK-LU-1 and 32.6% in the experiment on MCF7.

With `C[C@]12CC[C@H](OC(=O)c3ccc(C(F)(F)F)cc3)CC1=CC[C@@H]1[C@@H]2CC[C@]2(C)C(n3cccn3)=C(C=O)C[C@@H]12`, the inhibition of growth at 50 µM in the experiment on PC-3 came out at 78.2%; in the experiment on SK-LU-1 it was 73.3%; with MCF7, 0%.

Take `C[C@]12CC[C@H](OC(=O)c3ccc(C#N)cc3)CC1=CC[C@@H]1[C@@H]2CC[C@]2(C)C(n3cccn3)=C(C=O)C[C@@H]12`: the inhibition of growth at 50 µM in the experiment on PC-3 amounted to 30.4%; in the experiment with SK-LU-1 it was 22.5%; with MCF7 it was 81.2%.

As for `C[C@]12CC[C@H](OC(=O)c3ccc([N+](=O)[O-])cc3)CC1=CC[C@@H]1[C@@H]2CC[C@]2(C)C(n3cccn3)=C(C=O)C[C@@H]12`, the inhibition of growth at 50 µM with PC-3 worked out at 16.7%; in the experiment on SK-LU-1, 7.5%; in the experiment on MCF7, 20.2%.

`C[C@]12CC[C@H](OC(=O)c3ccc(F)cc3)CC1=CC[C@@H]1[C@@H]2CC[C@]2(C)C(n3cccn3)=C(C=O)C[C@@H]12`: the inhibition of growth at 50 µM in the experiment on PC-3 stood at 20.5%; with SK-LU-1 it was 5.5%; with MCF7 it was 50.7%.

Take `C[C@]12CC[C@H](OC(=O)c3ccc(Cl)cc3)CC1=CC[C@@H]1[C@@H]2CC[C@]2(C)C(n3cccn3)=C(C=O)C[C@@H]12`: the inhibition of growth at 50 µM in the experiment on PC-3 worked out at 24.6%; with SK-LU-1, 20.7%; in the experiment with MCF7, 32.4%.

For the compound `C[C@]12CC[C@H](OC(=O)c3ccc(Br)cc3)CC1=CC[C@@H]1[C@@H]2CC[C@]2(C)C(n3cccn3)=C(C=O)C[C@@H]12`, the results for the inhibition of growth at 50 µM with PC-3, in the experiment on SK-LU-1 and in the experiment on MCF7 were 3.7%, 17.4% and 18.5%, respectively.

For the compound `C[C@]12CC[C@H](OC(=O)c3ccc(I)cc3)CC1=CC[C@@H]1[C@@H]2CC[C@]2(C)C(n3cccn3)=C(C=O)C[C@@H]12`, the inhibition of growth at 50 µM in the experiment with PC-3 was 58.4%; in the experiment with SK-LU-1, 93.5%; in the experiment on MCF7 it was 96.8%.

In the case of `C[C@]12CC[C@H](O)CC1=CC[C@@H]1[C@@H]2CC[C@]2(C)C(n3cccn3)=C(C=O)C[C@@H]12`, the figures for the inhibition of growth at 50 µM in the experiment on PC-3, in the experiment on SK-LU-1 and with MCF7 were 100%, 100% and 41.6%, respectively.

Take `C[C@]12CC[C@H](OC(=O)C3CC3)CC1=CC[C@@H]1[C@@H]2CC[C@]2(C)C(n3cncn3)=C(C=O)C[C@@H]12`: the figures for the inhibition of growth at 50 µM in the experiment with PC-3, in the experiment on SK-LU-1 and with MCF7 were 88.7%, 100% and 100%, respectively.

Consider `C[C@]12CC[C@H](OC(=O)C3CCC3)CC1=CC[C@@H]1[C@@H]2CC[C@]2(C)C(n3cncn3)=C(C=O)C[C@@H]12`, for which the values for the inhibition of growth at 50 µM with PC-3, in the experiment with SK-LU-1 and with MCF7 were 0%, 27% and 16.5%, respectively.

Consider `CC(=O)N1CCN(c2ccc(OCC3COC(Cn4ccnc4)(c4ccc(Cl)cc4Cl)O3)cc2)CC1` (centres undefined) [KETOCONAZOLE], for which the inhibition of growth at 50 µM in the experiment with PC-3 worked out at 88.5%; in the experiment on SK-LU-1, 73.4%; with MCF7, 95.2%.

For the origin of these results see ChEMBL document CHEMBL2424552, “Cytotoxic effect of novel dehydroepiandrosterone derivatives on different cancer cell lines” (2013).
